{"source": "patent US20100173983A1", "about": "“METHOD FOR INDUCING AUTOPHAGY” (priority 2007, published 2010)", "key": {"mTOR": {"test_system": "mTOR", "test": "Western blot of R-182 lysates, mTOR", "assay_type": "cell-based, Human", "from_the_text": "(§1) FIG. 10. The expression of upstream regulators of autophagy are also modulated in response to Cpd 1. […] B-actin was included as a loading control. B, Proposed mechanism of Cpd 1 induced autophagic cell death.\n(§2) After treatment with Cpd 1, protein was extracted from cells and measured as previously described (Kamsteeg et al., 2003). For separation of the cytoplasmic and mitochondrial fractions, cell pellets were processed using the ApoAlert Cell Fractionation kit (Promega) according to the manufacturer's instructions. 20 μg protein was denatured in sample buffer (2.5% sodium dodecyl sulfate [SDS], 10% glycerol, 5% β-mercapto-ethanol, 0.15 M Tris, pH 6.8, and 0.01% bromophenol blue) and subjected to 12% SDS polyacrylamide gel electrophoresis (SDS-PAGE) as previously described (Kamsteeg et al., 2003). The following antibodies and concentrations were used: mouse anti-Bax (BD Biosciences, 1:500), rabbit anti-actin (Sigma, 1:10,000), rabbit anti-cytochrome c (BD Biosciences, 1:1,000), mouse anti-Cox-4 (BD Biosciences, 1:500), rabbit anti-beclin 1 (Santa Cruz Biotechnology, 1:600), mouse anti LC3 (Nanotools, 1:500). […] Proteins were observed using enhanced chemiluminescence (Pierce, Rockford, Ill.)."}, "ovarian cancer cells": {"test_system": "ovarian cancer cells", "test": "Cell viability in presence of pan caspase inhibitor ZVAD-FMK", "assay_type": "cell-based, Human", "details": "ZVAD-FMK 0.5 μg/ml", "experimental": "FIG. 5. Comparative cell viability plots of dehydroequol (A) and Cpd 1 (B) treated cells in the presence and absence of the pan caspase inhibitor ZVAD-FMK (0.5 μg/ml).\nCell viability was evaluated using the CellTiter 96 Aqueous One Solution Cell Proliferation Assay (Promega, Madison, Wis.) according to the manufacturer's instructions. The values from the treated cells were compared with the values generated from the untreated cells and reported as percent viability. Each experiment was performed in triplicate."}, "caspase 3": {"test_system": "caspase 3", "test": "Caspase-Glo 3/7 assay in R182 cells", "assay_type": "cell-based, Human", "details": "R182 ovarian cancer explants; dose response and duration of exposure (5 μg/ml, 0-25 hr)", "experimental": "FIG. 2. Comparative induction of caspase 3 in R182 ovarian cancer explants by Cpd 1 and dehydroequol using either dose response (A) or duration of exposure (B). Caspase 3 activity was assessed using the Caspase-Glo 3/7 assays.\n(§3) For caspase activity assays, 10 μg of protein in 50 μL total volume was mixed with 50 μL of equilibrated Caspase-Glo 3/7, 8, or 9 reagents (Promega). After incubating at room temperature for 1 hour, luminescence was measured using TD 20/20 Luminometer (Turner Designs, Sunnyvale, Calif.). Blank values were subtracted and fold-increase in activity was calculated based on activity measured from untreated cells. Each sample was measured in triplicate."}, "caspase 9": {"test_system": "caspase 9", "test": "Caspase-Glo 9 assay in R182 cells", "assay_type": "cell-based, Human", "details": "R182 ovarian cancer explants; dose response and duration of exposure (5 μg/ml, 0-25 hr)", "experimental": "FIG. 3. Comparative induction of caspase 9 in R182 ovarian cancer explants by Cpd 1 and dehydroequol using either dose response (A) or duration of exposure (B). Caspase 9 activity was assessed using the Caspase-Glo 9 assay.\nas §3"}, "Beclin 1": {"test_system": "Beclin 1", "test": "Western blot of R-182 mitochondrial extracts, Beclin 1", "assay_type": "cell-based, Human", "details": "R-182 cells, 5 μg/ml over 24 hr", "from_the_text": "FIG. 8. Molecular evidence of autophagic cell death in R-182 ovarian cancer cells induced by Cpd 1. […] B, Beclin 1 binds to Bcl-2. Immunoprecipitation study using mitochondrial preparations of cells pre-treated with Cpd 1 as stated in A, and subjected to beclin 1 immunoprecitation. Immunoprecipitated fractions were washed in PBS, subjected to SDS-PAGE, blotted and then probed with a mouse anti-Bcl-2 antibody. Actin and Topo-1 were used as loading control. C, Depolarized cells resulting from over-expression of Bax and Beclin 1 following administration of Cpd 1. Cells were treated with Cpd 1 as described in A, pelleted and washed in HBSS and the cell pellet resuspended in the reaction buffer for JC-1 (Biovision, Inc. MitoCapture™ K250-100). HBSS-washed cells were analysed by flow cytometry (λexcit=488 nm and (λemit=530 nm for green fluorescence (depolarized) or 590 nm for red fluorescence (polarized). 10,000 gated events were measured with a BD FACScalibur. Results were expressed as mean±standard deviation (n=3).\nAfter treatment with Cpd 1, protein was extracted from cells and measured as previously described (Kamsteeg et al., 2003). For separation of the cytoplasmic and mitochondrial fractions, cell pellets were processed using the ApoAlert Cell Fractionation kit (Promega) according to the manufacturer's instructions. […]"}, "S6K": {"test_system": "S6K", "test": "Western blot of xenograft tumour extracts, S6K phosphorylation", "assay_type": "in vivo, SCID mice", "details": "tumour-bearing mice dosed with Cpd 1, compared to control", "experimental": "FIG. 11. Cpd 1 markers of autophagy observed in in vitro studies are also present in vivo. […] T-S6K served as loading control.\nA downstream target of mTOR is the ribosomal protein S6K kinase thought to have a role in tumour invasiveness, motility and angiogenesis as well as other degenerative diseases such as diabetes (Dann et al., 2007). […] Tumour tissue was homogenised in lysis buffer containing 1% Nonidet P-40, 0.1% SDS, 0.5% deoxycholate, 150 mM NaCl, 50 mM Tris-HCl pH7.5, 1 mM EDTA, 1 mM PMSF and protease inhibitors (Roche) on ice for 30 minutes. After centrifugation at 15,000×g for 15 minutes, soluble extract was were aliquoted into a separate tube, protein content assayed by the BCA method (Pierce), and 50 μg protein loaded on SDS-PAGE gels. Proteins were electrophoretically transferred to PVDF membranes (Millipore Immobilon P) and the membranes were probed with antibodies specific to p-S6K and t-S6K (LifeSpan Bioscience). The blots were developed on X-ray films using HRP-conjugated secondary antibodies and a chemiluminescent substrate (ECL, Amersham, N.Y.)."}, "Akt": {"test_system": "Akt", "test": "Western blot of R-182 lysates, Akt", "assay_type": "cell-based, Human", "details": "R-182 cells, 5 μg/ml", "from_the_text": "as §1, §2"}, "caspase 8": {"test_system": "caspase 8", "test": "Caspase-Glo 8 assay in R182 cells", "assay_type": "cell-based, Human", "details": "R182 ovarian cancer explants; dose response and duration of exposure (5 μg/ml, 0-25 hr)", "experimental": "FIG. 4. Comparative induction of caspase 8 in R182 ovarian cancer explants by Cpd 1 and dehydroequol using either dose response (A) or duration of exposure (B). Caspase 8 activity was assessed using the Caspase-Glo 8 assay.\nas §3"}, "cytochrome c": {"test_system": "cytochrome c", "test": "Western blot of R-182 cytoplasmic extracts, cytochrome c", "assay_type": "cell-based, Human", "details": "R-182 cells, 5 μg/ml over 8 hr", "experimental": "FIG. 9. Cpd 1-induced cell death involves cytochrome c translocation to the cytoplasm. R-182 cells treated with Cpd 1 (5 μg/ml) over 8 hr and the cytoplasmic and mitochondrial fractions were separated. […] Cox-4 was included to show the integrity of the mitochondrial preparation.\nas §2\nCpd 1-induced cell death also involves cytochrome c translocation to the cytoplasm (FIG. 9). […]"}}}
{"smiles": "COc1ccc([C@H]2c3ccc(O)c(C)c3OC[C@H]2c2ccc(O)cc2)cc1", "note": "(stereo in doubt) [Cpd 1, 3-(4-hydroxyphenyl)-4-(4-methoxyphenyl)-8-methylchroman-7-ol]", "values": [{"measurement": "mTOR expression", "setting": "mTOR; R-182 cells, 5 μg/ml", "value": "reduced up to 120 minutes post exposure"}, {"measurement": "phosphorylated mTOR levels in soluble extracts of cells", "setting": "mTOR; cells treated in vitro, compared to control", "value": "decreased"}, {"measurement": "cell death in the presence of pan caspase inhibitor ZVAD-FMK", "setting": "ovarian cancer cells", "value": "cell death proceeded"}, {"measurement": "caspase 3 activity", "setting": "caspase 3", "value": "did not induce caspase 3 activity"}, {"measurement": "caspase 9 activity", "setting": "caspase 9", "value": "did not induce caspase 9 activity"}, {"measurement": "mitochondrial content of beclin-1", "setting": "Beclin 1", "value": "transiently increased"}, {"measurement": "phosphorylation status of S6K (S6K-P) in tumour extracts", "setting": "S6K", "value": "reduced compared to control"}, {"measurement": "Akt phosphorylation (p-Akt)", "setting": "Akt", "value": "reduced up to 120 minutes post exposure"}, {"measurement": "total Akt (t-Akt) expression", "setting": "Akt", "value": "remained unchanged"}, {"measurement": "caspase 8 activity", "setting": "caspase 8", "value": "did not induce caspase 8 activity"}, {"measurement": "occurrence of cytochrome c in the cytoplasm", "setting": "cytochrome c", "value": "increased over time"}]}
